Columns and labels:
Format in all cases: cell-based
[1] = system: human Mo/MØs; assay: Morphology of Mo/MØ monolayers on polyetherurethane cultured with DSP (OM, SEM); conditions: human Mo/MØs on PEU cultured with DSP in media, versus standard media
Experimental: Blood was anticoagulated with 2 units/ml sodium heparin (Upjohn Co., Kalamazoo, Mich.). Mononuclear cells (lymphocytes, monocytes) were isolated within 15 minutes by a one-step density gradient centrifugation procedure using Isopaque-1077 (a density gradient solution) according to a modified Boyum's method (Boyum et al., Blood Separation and Plasma Fractionation, 217-239, Wiley-Liss, Inc. (1991)). The mononuclear cells were harvested and washed twice with cold Hanks balanced salt solution (HBSS) without Ca^2+ and Mg^2+ to minimize cell aggregation. The cells were then resuspended in standard media (RPMI-1640, 10% Fetal bovine serum, 0.2M L-glutamine, 10 Ul/ml Penicillin-G, and 0.1 mg/ml Streptomycin). The cell suspension was seeded into several plastic tissue culture flasks and incubated in the presence of 5% CO2 at 37° C. for 1 hour (Ackerman et al., J. Immunol., 20, 1372-1374 (1978)). After this incubation, adherent (monocytes) were gently scrapped from the surface and resuspended in standard media. Nonadherent cells (lymphocytes) contained in the supernatant were recovered into sterile tubes, and the remaining nonadherent cells washed off with cold HBSS. […] The polymer surfaces were also evaluated using SEM following the 10-day treatment with FeCl2. […]

[2] = system: IL-1α; assay: Cytokine analysis, in vitro expression of IL-1α; conditions: human primary monocytes; DEX 2.5, 0.25, 0.025 μg/ml; methotrexate 50, 5, 0.5 μg/ml; dose- and incubation time-dependent
Experimental: (§1) In order to assess the in vitro expression of IL-1α and IL-8, human primary monocytes were incubated with various concentrations of DEX (2.5, 0.25, and 0.025 μg/ml) and methotrexate (50, 5, and 0.5 μg/ml).

[3] = system: IL-8; assay: Cytokine analysis, in vitro expression of IL-8; conditions: human primary monocytes; DEX 2.5, 0.25, 0.025 μg/ml; methotrexate 50, 5, 0.5 μg/ml; dose- and incubation time-dependent
Experimental: as §1

Compound | cell size of Mo/MØ monolayers (OM) [1] | IL-1 inhibition [2] | IL-8 inhibition [3]
C[C@@H]1C[C@H]2[C@@H]3CCC4=CC(=O)C=C[C@]4(C)[C@@]3(F)[C@@H](O)C[C@]2(C)[C@@]1(O)C(=O)COP(=O)(O)O [DSP, dexamethasone sodium phosphate] | no increase in cell size | – | –
CN(Cc1cnc2nc(N)nc(N)c2n1)c1ccc(C(=O)N[C@@H](CCC(=O)O)C(=O)O)cc1 [methotrexate] | – | higher rate of IL-1 and IL-8 inhibition | higher rate of IL-1 and IL-8 inhibition

Source: US20020138123A1, “Medical electrical leads and indwelling catheters with enhanced biocompatibility and biostability” (Medtronic, Inc., priority 1998, published 2002)
